This experiment concerns SKOV-3 cells. Description: Survival MTT assay, SKOV-3. In kind it is cell-based. The note with it: Homo sapiens, SK-OV-3, 72 h. On the procedure:
One day prior the treatment with compound, 2000 to 4000 cells per well were plated in a tissue culture treated 96 well format dish with 100 ul of media and incubated at 37° C., 5% CO2. On the day of compound treatment, compounds were diluted with cell culture media to a working stock concentration of 2×. 100 uL of diluted compound were then added to each well. The treated plate was incubated for 72 h at 37° C., 5% CO2. Upon incubation, the cell viability was assessed as followed 20 uL of MTT reagent at 5 mg/ml were added per well to cell plate. The plate was incubated for 2 h at 37° C. in presence of 5% CO2. The supernatant was then removed from the plate and 100 uL of isopropanol were added. The absorbance was measured in a TECAN spectrophotometer at 570 nm. The percentage of viability was expressed in percentage of the signal obtained with non treated cells.
A general note: Tetrazolium assays rely on reduction of a dye to a coloured formazan, in cell work by metabolically active cells.

As a reminder, the EC50 is the concentration giving half of the maximal effect.

Molecules are shown by their SMILES. Read-outs that look alike come from different tables or passages of the source. *1 amine or outer side, *2 acyl side, *3 side chain or, on linkers, in order; H or OH if unused. Where a SMILES comes first, the peptide text is derived from it. Bridges are numbered along the chain shown (N, C = ends). Roman numbers before positions name the chains, in order. [ ]: non-standard residue; d: D form. The star is where a group is joined. cisHyp = O=C(O)[C@@H]1C[C@H](O)CN1; pXylylene = c1cc(C[*:2])ccc1C[*:1]; NHPhenethyl = c1ccc(CCN*)cc1; Tle = CC(C)(C)[C@H](N)C(=O)O; NMeA = CN[C@@H](C)C(=O)O

Regarding `CN[C@@H](C)C(=O)C[C@H](C(=O)N1C[C@@H](NC(=O)CCCCCCCC(=O)N[C@H]2C[C@@H](C(=O)N[C@@H]3CCCc4ccccc43)N(C(=O)[C@@H](NC(=O)[C@H](C)NC)C(C)(C)C)C2)C[C@H]1C(=O)N[C@@H]1CCCc2ccccc21)C(C)(C)C` [Compound 12], the EC50 (read-out: SKOV-3 EC50) was below 50 nM.

With `CN[C@@H](C)C(=O)N[C@H](C(=O)N1CC(NC(=O)CCCCCC(=O)N[C@H]2C[C@@H](C(=O)N[C@@H]3CCCc4ccccc43)N(C(=O)[C@@H](NC(=O)[C@H](C)NC)C(C)(C)C)C2)C[C@H]1C(=O)NC1CCCc2ccccc21)C(C)(C)C` (stereo partly drawn) [Compound 13], the EC50 (read-out: SKOV-3 EC50) is below 50 nM.

As to `CN[C@@H](C)C(=O)N[C@H](C(=O)N1C[C@@H](NC(=O)CCCC(=O)N[C@H]2C[C@@H](C(=O)N[C@@H]3CCCc4ccccc43)N(C(=O)[C@@H](NC(=O)[C@H](C)NC)C(C)(C)C)C2)C[C@H]1C(=O)NC1CCCc2ccccc21)C(C)(C)C` (stereo partly drawn) [Compound 14], the EC50 (read-out: SKOV-3 EC50) is below 50 nM.

`CN[C@@H](C)C(=O)N[C@H](C(=O)N1C[C@@H](NC(=O)Cc2ccc(CC(=O)N[C@H]3C[C@@H](C(=O)N[C@@H]4CCCc5ccccc54)N(C(=O)[C@@H](NC(=O)[C@H](C)NC)C(C)(C)C)C3)cc2)C[C@H]1C(=O)N[C@@H]1CCCc2ccccc21)C(C)(C)C` [Compound 15]: the EC50 (read-out: SKOV-3 EC50) was below 50 nM.

Turning to `CN[C@@H](C)C(=O)N[C@H](C(=O)N1C[C@@H](NC(=O)c2ccc(Oc3ccc(C(=O)N[C@H]4C[C@@H](C(=O)N[C@@H]5CCCc6ccccc65)N(C(=O)[C@@H](NC(=O)[C@H](C)NC)C(C)(C)C)C4)cc3)cc2)C[C@H]1C(=O)N[C@@H]1CCCc2ccccc21)C(C)(C)C` [Compound 16], the EC50 (read-out: SKOV-3 EC50) is below 50 nM.

Take `CN[C@@H](C)C(=O)N[C@H](C(=O)N1C[C@@H](OCc2ccc(CO[C@H]3C[C@@H](C(=O)N[C@@H]4CCCc5ccccc54)N(C(=O)[C@@H](NC(=O)[C@H](C)NC)C(C)(C)C)C3)cc2)C[C@H]1C(=O)N[C@@H]1CCCc2ccccc21)C(C)(C)C` [Compound 17]: the EC50 (read-out: SKOV-3 EC50) was below 50 nM.

Regarding `CN[C@@H](C)C(=O)N[C@H](C(=O)N1C[C@@H](NC(=O)c2ccc(C(=O)N[C@H]3C[C@@H](C(=O)OC)N(C(=O)[C@@H](NC(=O)[C@H](C)NC)C(C)(C)C)C3)cc2)C[C@H]1C(=O)OC)C(C)(C)C` [Compound 18], for the setting “read-out: SKOV-3 EC50”, the EC50 is above 1000 nM.

Turning to `CN[C@@H](C)C(=O)N[C@H](C(=O)N1C[C@@H](NC(=O)c2ccc(C(=O)N[C@H]3C[C@@H](C(=O)NCCc4ccc(F)cc4)N(C(=O)[C@@H](NC(=O)[C@H](C)NC)C(C)(C)C)C3)cc2)C[C@H]1C(=O)NCCc1ccc(F)cc1)C(C)(C)C` [Compound 19], the concentration giving a half-maximal response (EC50) (read-out: SKOV-3 EC50) was below 50 nM.

With `CN[C@@H](C)C(=O)N[C@H](C(=O)N1C[C@@H](NC(=O)c2ccc(C(=O)N[C@H]3C[C@@H](C(=O)NCCc4ccccc4)N(C(=O)[C@@H](NC(=O)[C@H](C)NC)C(C)(C)C)C3)cc2)C[C@H]1C(=O)NCCc1ccccc1)C(C)(C)C` [Compound 20], the EC50 (read-out: SKOV-3 EC50) was below 50 nM.

As for `CN[C@@H](C)C(=O)N[C@H](C(=O)N1C[C@@H](NC(=O)c2ccc(C(=O)N[C@H]3C[C@@H](C(=O)NC[C@H](C)c4ccccc4)N(C(=O)[C@@H](NC(=O)[C@H](C)NC)C(C)(C)C)C3)cc2)C[C@H]1C(=O)NC[C@@H](C)c1ccccc1)C(C)(C)C` [Compound 21], under “read-out: SKOV-3 EC50”, the EC50 is below 50 nM.

As to `CN[C@@H](C)C(=O)N[C@H](C(=O)N1C[C@@H](NC(=O)c2ccc(C(=O)N[C@H]3C[C@@H](C(=O)NC(C)C)N(C(=O)[C@@H](NC(=O)[C@H](C)NC)C(C)(C)C)C3)cc2)C[C@H]1C(=O)NC(C)C)C(C)(C)C` [Compound 22], the half-maximal effective concentration (EC50) (read-out: SKOV-3 EC50) is below 250 nM.

In the case of `CN[C@@H](C)C(=O)N[C@H](C(=O)N1C[C@@H](NC(=O)c2ccc(C(=O)N[C@H]3C[C@@H](C(=O)N[C@@H]4CCCc5ccccc54)N(C(=O)[C@@H](NC(=O)[C@H](C)NC)C(C)(C)C)C3)cc2)C[C@H]1C(=O)N[C@H]1CCCc2ccccc21)C(C)(C)C` [Compound 23], where the note is “read-out: SKOV-3 EC50”, the 50% effective concentration (EC50) is below 50 nM.

As for `CN[C@@H](C)C(=O)N[C@H](C(=O)N1C[C@@H](NC(=O)c2ccc(C(=O)N[C@H]3C[C@@H](C(=O)NC(c4ccccc4)c4ccccc4)N(C(=O)[C@@H](NC(=O)[C@H](C)NC)C(C)(C)C)C3)cc2)C[C@H]1C(=O)NC(c1ccccc1)c1ccccc1)C(C)(C)C` [Compound 24], the 50% effective concentration (EC50) (read-out: SKOV-3 EC50) was below 50 nM.

On to `CN[C@@H](C)C(=O)N[C@H](C(=O)N1C[C@@H](NC(=O)c2ccc(C(=O)N[C@H]3C[C@@H](CN(CCc4ccccc4)C(C)=O)N(C(=O)[C@@H](NC(=O)[C@H](C)NC)C(C)(C)C)C3)cc2)C[C@H]1CN(CCc1ccccc1)C(C)=O)C(C)(C)C` [Compound 25], for which, under “read-out: SKOV-3 EC50”, the EC50 was below 50 nM.

As for `CN[C@@H](C)C(=O)N[C@H](C(=O)N1C[C@@H](NC(=O)c2ccc(C(=O)N[C@H]3C[C@@H](CN(CCc4ccccc4)S(C)(=O)=O)N(C(=O)[C@@H](NC(=O)[C@H](C)NC)C(C)(C)C)C3)cc2)C[C@H]1CN(CCc1ccccc1)S(C)(=O)=O)C(C)(C)C` [Compound 26], the concentration giving a half-maximal response (EC50) (read-out: SKOV-3 EC50) was below 250 nM.

For `CN[C@@H](C)C(=O)N[C@H](C(=O)N1C[C@@H](NC(=O)c2ccc(C(=O)N[C@H]3C[C@@H](CN(CCc4ccccc4)C(=O)c4ccccc4)N(C(=O)[C@@H](NC(=O)[C@H](C)NC)C(C)(C)C)C3)cc2)C[C@H]1CN(CCc1ccccc1)C(=O)c1ccccc1)C(C)(C)C` [Compound 27], the concentration for a half-maximal effect (EC50) (read-out: SKOV-3 EC50) was below 250 nM.

As to `CN[C@@H](C)C(=O)N[C@H](C(=O)N1C[C@@H](NC(=O)c2ccc(C(=O)N[C@H]3C[C@@H](CN(CCc4ccc(F)cc4)C(C)=O)N(C(=O)[C@@H](NC(=O)[C@H](C)NC)C(C)(C)C)C3)cc2)C[C@H]1CN(CCc1ccc(F)cc1)C(C)=O)C(C)(C)C` [Compound 28], the 50% effective concentration (EC50) (read-out: SKOV-3 EC50) was below 50 nM.

On to `CN[C@@H](C)C(=O)N[C@H](C(=O)N1C[C@@H](OCc2ccc(CO[C@H]3C[C@@H](C(=O)NCCc4ccccc4)N(C(=O)[C@@H](NC(=O)[C@H](C)NC)C(C)(C)C)C3)cc2)C[C@H]1C(=O)NCCc1ccccc1)C(C)(C)C` [Compound 29] (I: H-[NMeA]-[Tle]-[cisHyp]-NHPhenethyl / II: H-[NMeA]-[Tle]-[cisHyp]-NHPhenethyl; linker I:3-II:3 via pXylylene), for which the EC50 reads like this: (read-out: EC50 against SKOV3) 88 nM; (read-out: SKOV-3 EC50) below 250 nM.

Turning to `CN[C@@H](C)C(=O)N[C@H](C(=O)N1C[C@@H](NC(=O)c2ccc(C(=O)N[C@H]3C[C@@H](CN(CCc4ccc(F)cc4)S(C)(=O)=O)N(C(=O)[C@@H](NC(=O)[C@H](C)NC)C(C)(C)C)C3)cc2)C[C@H]1CN(CCc1ccc(F)cc1)S(C)(=O)=O)C(C)(C)C` [Compound 30], the EC50 is, setting by setting: (read-out: EC50 against SKOV3) 188 nM; (read-out: SKOV-3 EC50) above 1000 nM.

Regarding `CN[C@@H](C)C(=O)N[C@H](C(=O)N1C[C@@H](NC(=O)c2ccc(C(=O)N[C@H]3C[C@@H](C(=O)NCC(c4ccccc4)c4ccccc4)N(C(=O)[C@@H](NC(=O)[C@H](C)NC)C(C)(C)C)C3)cc2)C[C@H]1C(=O)NCC(c1ccccc1)c1ccccc1)C(C)(C)C` [Compound 31], the 50% effective concentration (EC50) (read-out: SKOV-3 EC50) was below 250 nM.

Consider `CN[C@@H](C)C(=O)N[C@H](C(=O)N1C[C@@H](NC(=O)c2ccc(C(=O)N[C@H]3C[C@@H](C(=O)NCc4cccc5ccccc45)N(C(=O)[C@@H](NC(=O)[C@H](C)NC)C(C)(C)C)C3)cc2)C[C@H]1C(=O)NCc1cccc2ccccc12)C(C)(C)C` [Compound 32], for which, under “read-out: SKOV-3 EC50”, the EC50 is below 250 nM.

For `CN[C@@H](C)C(=O)N[C@H](C(=O)N1C[C@@H](NS(=O)(=O)c2cccc(S(=O)(=O)N[C@H]3C[C@@H](C(=O)N[C@@H]4CCCc5ccccc54)N(C(=O)[C@@H](NC(=O)[C@H](C)NC)C(C)(C)C)C3)c2)C[C@H]1C(=O)N[C@@H]1CCCc2ccccc21)C(C)(C)C` [Compound 33], where the note is “read-out: SKOV-3 EC50”, the EC50 was below 50 nM.

(Values after patent US9365614B2, “IAP BIR domain binding compounds” (priority 2006, dated 2016).)
